Results: ChEMBL document CHEMBL4043219, “Development of sulfonamides incorporating phenylacrylamido functionalities as carbonic anhydrase isoforms I, II, IX and XII inhibitors” (Bioorg Med Chem, 2017)

The compounds below were run against Carbonic anhydrase 12 (Homo sapiens, UniProt O43570) (assay: Inhibition of human recombinant carbonic anhydrase-12 preincubated for 10 mins by stopped-flow CO2 hydration assay).
Chain of Carbonic anhydrase 12 (O43570 whole entry): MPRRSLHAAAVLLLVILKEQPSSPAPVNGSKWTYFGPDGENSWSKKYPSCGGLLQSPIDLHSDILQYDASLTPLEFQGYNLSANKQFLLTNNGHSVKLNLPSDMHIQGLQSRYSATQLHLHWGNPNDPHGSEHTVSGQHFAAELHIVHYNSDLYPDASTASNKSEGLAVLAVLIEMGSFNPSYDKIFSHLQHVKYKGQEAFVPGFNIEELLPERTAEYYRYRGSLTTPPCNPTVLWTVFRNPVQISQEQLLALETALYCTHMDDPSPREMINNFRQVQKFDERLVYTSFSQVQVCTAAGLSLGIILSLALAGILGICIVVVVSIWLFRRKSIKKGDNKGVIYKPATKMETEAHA

Ki | SMILES
4.6 nM | NS(=O)(=O)c1ccc(NC(=O)/C=C/c2ccccc2OC(F)F)cc1

Each compound was assayed against Carbonic anhydrase 9 (Homo sapiens, UniProt Q16790).
Description: Inhibition of human recombinant carbonic anhydrase-9 preincubated for 10 mins by stopped-flow CO2 hydration assay

SMILES | Ki
NS(=O)(=O)c1ccc(NC(=O)/C=C/c2ccc(OC(F)(F)F)cc2)cc1 | 4.9 nM
NS(=O)(=O)c1ccc(NC(=O)/C=C/c2ccc(C(F)(F)F)cc2)cc1 | 2.4 nM
NS(=O)(=O)c1ccc(NC(=O)/C=C/c2cccc(C(F)(F)F)c2)cc1 | 11.6 nM
COc1ccc(/C=C/C(=O)Nc2ccc(S(N)(=O)=O)cc2)cc1OC | 9.3 nM
NS(=O)(=O)c1ccc(NC(=O)/C=C/c2ccc(F)cc2)cc1 | 2.4 nM
NS(=O)(=O)c1ccc(NC(=O)/C=C/c2cccc(F)c2)cc1 | 2 nM
COc1ccc(/C=C/C(=O)Nc2ccc(S(N)(=O)=O)cc2)c(OC)c1 | 9.6 nM
NS(=O)(=O)c1ccc(NC(=O)/C=C/c2ccc(F)c(F)c2)cc1 | 151 nM
CC(C)Oc1ccc(/C=C/C(=O)Nc2ccc(S(N)(=O)=O)cc2)cc1 | 20.3 nM
COc1ccc(/C=C/C(=O)Nc2ccc(S(N)(=O)=O)cc2)cc1 | 5.3 nM

Other lines, results leading:

Ki | SMILES
229 nM | NS(=O)(=O)c1ccc(NC(=O)/C=C/c2cc(Cl)cc(Cl)c2)cc1
12.6 nM | NS(=O)(=O)c1ccc(NC(=O)/C=C/c2ccc(Cl)cc2)cc1
126 nM | COc1cc(/C=C/C(=O)Nc2ccc(S(N)(=O)=O)cc2)cc(OC)c1OC
8 nM | N#Cc1ccc(/C=C/C(=O)Nc2ccc(S(N)(=O)=O)cc2)cc1
11.2 nM | COc1ccc(/C=C/C(=O)Nc2ccc(S(N)(=O)=O)cc2)c(F)c1
1.8 nM | NS(=O)(=O)c1ccc(NC(=O)/C=C/c2ccccc2OC(F)F)cc1
